The text below walks through data of ChEMBL document CHEMBL4190350, “Synthesis, antimicrobial, antiquorum-sensing, antitumor and cytotoxic activities of new series of cyclopenta(hepta)[b]thiophene and fused cyclohepta[b]thiophene analogs” (Eur J Med Chem, 2017).

≈ marks a conversion by molar mass, not a printed value. Calls of active or inactive are those of the source. The rule behind the calls is not given here. Where only a bound is given, the exact number is not on record here.

Data set [1] relates to Mus musculus. Kind of data set: Toxicity in mouse EAC cells implanted Swiss albino mouse assessed as RBC count at 0.5 mg for 9 days (reference value: 3.69 10^6/mm3). Type of data set: organism-based. The conditions noted are these: in vivo, 216 h.
In data set [2] the test system is Ehrlich. Kind of data set: Antitumor activity against mouse EAC cells implanted in Swiss albino mouse assessed as reduction in tumor cell count at 0.5 mg for 9 days (reference value: 9.85 ml). Type of data set: functional, cell-based.
Data set [3] has as its system Staphylococcus aureus. Kind of data set: Antimicrobial activity against Staphylococcus aureus incubated for 24 hrs by disc diffusion assay. Type of data set: functional. (In general: A growth-free zone around the sample is the usual read-out of agar diffusion tests.)
The subject of data set [4] is Escherichia coli. Kind of data set: Antimicrobial activity against Escherichia coli incubated for 24 hrs by disc diffusion assay. Type of data set: functional.
Data set [5] relates to Mus musculus. Nature of the data set: Toxicity in mouse EAC cells implanted Swiss albino mouse assessed as hemoglobin level at 0.5 mg for 9 days (reference value: 8.15 g/dl). Type of data set: organism-based. The settings on record: in vivo, 216 h.
The subject of data set [6] is MCF7. Nature of the data set: Antitumor activity against human MCF7 cells assessed as inhibition of cell viability incubated for 48 hrs by MTT assay. The class given is functional, cell-based. The conditions noted are these: MCF7, 48 h. (Tetrazolium dyes change colour on reduction, which living cells bring about.)
Data set [7] concerns Candida albicans. Kind of data set: Antimicrobial activity against Candida albicans incubated for 48 hrs by disc diffusion assay. Type of data set: functional.
For data set [8], the system named is HepG2. Kind of data set: Antitumor activity against human HepG2 cells assessed as inhibition of cell viability incubated for 48 hrs by MTT assay. The class given is functional, cell-based. The settings on record: HepG2, 48 h.
Data set [9] can be described thus: Binding affinity to DNA (unknown origin) assessed as reduction in absorption maxima for methyl green/DNA complex incubated for 24 hrs by methyl green/DNA displacement assay.
For data set [10], the system named is Aspergillus fumigatus. Nature of the data set: Antimicrobial activity against Aspergillus fumigatus incubated for 48 hrs by disc diffusion assay. Type of data set: functional.
Data set [11] deals with Ehrlich. Kind of data set: Antitumor activity against mouse EAC cells implanted in Swiss albino mouse assessed as tumor volume at 0.5 mg for 9 days (reference value: 9.85 ml). The class given is functional.
Data set [12] concerns Chromobacterium violaceum. Kind of data set: Inhibition of quorum sensing system in Chromobacterium violaceum ATCC 12472 assessed as inhibition of violacein production at 5 mg/mL incubated for 48 hrs.
Data set [13] deals with Bacillus cereus. Nature of the data set: Antimicrobial activity against Bacillus cereus incubated for 24 hrs by disc diffusion assay. The class given is functional.
Data set [14] has as its system Mus musculus. Kind of data set: Toxicity in mouse EAC cells implanted Swiss albino mouse assessed as WBC count at 0.5 mg for 9 days (reference value: 23.96 10^3/mm3). Type of data set: organism-based. The conditions noted are these: in vivo, 216 h.
Data set [15] has as its system HT-29. Nature of the data set: Antitumor activity against human HT-29 cells assessed as inhibition of cell viability incubated for 48 hrs by MTT assay. The class given is functional, cell-based. The settings on record: HT-29, 48 h.
Data set [16] concerns Ehrlich. Kind of data set: Antitumor activity against mouse EAC cells implanted in Swiss albino mouse assessed as increase in life span at 0.5 mg for 9 days relative to untreated control. The class given is functional.
The test system of data set [17] is WI-38. Nature of the data set: Cytotoxicity in human WI38 cells assessed as inhibition of cell viability incubated for 48 hrs by MTT assay. Type of data set: cell-based. The settings on record: WI-38, 48 h.
Data set [18] deals with Ehrlich. Kind of data set: Antitumor activity against mouse EAC cells implanted in Swiss albino mouse assessed as mean survival time at 0.5 mg for 9 days (reference value: 14.5 day). The class given is functional.
Data set [19] relates to Staphylococcus aureus. Nature of the data set: Antimicrobial activity against Staphylococcus aureus incubated for 24 hrs by serial dilution method. Type of data set: functional.
For data set [20], the system named is Escherichia coli. Nature of the data set: Antimicrobial activity against Escherichia coli incubated for 24 hrs by serial dilution method. The class given is functional.
Data set [21] deals with Bacillus cereus. Kind of data set: Antimicrobial activity against Bacillus cereus incubated for 24 hrs by serial dilution method. The class given is functional.
Data set [22] deals with Aspergillus fumigatus. Kind of data set: Antimicrobial activity against Aspergillus fumigatus incubated for 48 hrs by serial dilution method. Type of data set: functional.

In the case of `CC1=NN=C(C)C1=NNc1sc2c(c1C(=O)NN)CCCCC2`, the Activity amounted to 5.57 ×10⁶ /mm3 in data set [1], 13.23 g/dL in data set [5], 1.85 mL in [11] and 6.9 ×10³ /mm3 in [14]. The outcome in [2] was Active. Moreover, the “diameter of the inhibition zone (DIZ)” value in data set [3], in data set [4], in data set [7], in data set [10] and in [13] was less than 2 mm each time. Besides, the IC50 – broadly, the concentration that inhibits the measured activity by half – came to 4.1 µM in data set [6]; 6.9 µM in data set [8]; 27.8 µM in [9]; 5.7 µM in data set [15]; 33.2 µM in [17]. The INH in [12] stood at 5 mm. Also, the ILS (commonly how much longer treated animals lived than controls) in [16] turned out to be 227.55%. Besides, the MST in [18] is 47.5 days.

In the case of `CCOC(=O)/C(=N/Nc1sc2c(c1C(=O)OCC)CCCCC2)C(C)=O`, the Activity was found to be 5.51 ×10⁶ /mm3 in data set [1], 13.15 g/dL in [5], 1.97 mL in data set [11] and 7.11 ×10³ /mm3 in data set [14]. Also, the result in data set [2] was Active. Also, the “diameter of the inhibition zone (DIZ)” value in [3] was 32 mm; in data set [4], 22 mm; in [7] it was less than 2 mm; in data set [10] it was less than 2 mm; in data set [13], 24 mm. For the same molecule, the IC50 in [6] was 5.8 µM; in data set [8] it was 9.1 µM; in [9] it was 40.6 µM; in data set [15], 4.5 µM; in data set [17], 44.8 µM. The INH in data set [12] was less than 2 mm. The MIC (commonly the lowest concentration that inhibits growth of the organism) in data set [19] came to 205 µM (≈ 78.1 µg/mL); in data set [20], 205 µM (≈ 78.1 µg/mL); in data set [21], 411 µM (≈ 156 µg/mL). In data set [16], the increase in life span (ILS) is 210.34%. The MST in data set [18] came out at 45 days.

As to `CCOC(=O)/C(=N/Nc1sc2c(c1C(=O)OCC)CCC2)C(C)=O`, the Activity worked out at 5.49 ×10⁶ /mm3 in [1], 13.1 g/dL in data set [5], 2.32 mL in data set [11] and 7.56 ×10³ /mm3 in data set [14]. The outcome in [2] was Active. Moreover, the “diameter of the inhibition zone (DIZ)” value in data set [3] is less than 2 mm; in data set [4] it was 4 mm; in [7], 5 mm; in data set [10], 16 mm; in data set [13] it was 7 mm. Besides, the IC50 in data set [6] came to 9.7 µM; in [8], 16.1 µM; in [9] it was 65.7 µM; in [15], 8.8 µM; in [17], 25.3 µM. Further, in data set [22], the MIC is 887 µM (≈ 312 µg/mL). In addition, in data set [12], the INH worked out at 6 mm. The ILS in data set [16] is listed as 205.52%. In addition, the MST in data set [18] was 44.3 days.
